Here are results for one compound from ChEMBL document CHEMBL5113453, “Design, synthesis, and biological evaluation of a new series of pyrazole derivatives: Discovery of potent and selective JNK3 kinase inhibitors” (Bioorg Med Chem, 2022).

Test [1] concerns the target Mitogen-activated protein kinase 8 (Homo sapiens, UniProt P45983). Put plainly: Inhibition of JNK1-alpha-1 (unknown origin) at 1 uM relative to control.
The target in test [2] is Mitogen-activated protein kinase 9 (Homo sapiens, UniProt P45984). Kind of test: Inhibition of JNK2-alpha-2 (unknown origin) at 1 uM relative to control.
Mitogen-activated protein kinase 9, sequence (P45984 whole entry, looked up): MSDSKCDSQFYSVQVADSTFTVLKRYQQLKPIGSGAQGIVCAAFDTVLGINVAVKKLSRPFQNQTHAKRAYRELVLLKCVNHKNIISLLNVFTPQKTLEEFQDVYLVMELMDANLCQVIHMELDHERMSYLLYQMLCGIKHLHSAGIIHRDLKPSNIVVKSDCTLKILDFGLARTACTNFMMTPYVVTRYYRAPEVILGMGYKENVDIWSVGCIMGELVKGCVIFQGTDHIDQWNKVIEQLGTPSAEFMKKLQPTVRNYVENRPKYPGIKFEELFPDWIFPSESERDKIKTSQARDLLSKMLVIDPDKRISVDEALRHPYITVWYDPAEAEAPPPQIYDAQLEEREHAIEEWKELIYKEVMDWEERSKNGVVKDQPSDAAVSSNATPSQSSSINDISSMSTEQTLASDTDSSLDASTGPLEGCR

Mitogen-activated protein kinase 8, sequence (P45983 whole entry): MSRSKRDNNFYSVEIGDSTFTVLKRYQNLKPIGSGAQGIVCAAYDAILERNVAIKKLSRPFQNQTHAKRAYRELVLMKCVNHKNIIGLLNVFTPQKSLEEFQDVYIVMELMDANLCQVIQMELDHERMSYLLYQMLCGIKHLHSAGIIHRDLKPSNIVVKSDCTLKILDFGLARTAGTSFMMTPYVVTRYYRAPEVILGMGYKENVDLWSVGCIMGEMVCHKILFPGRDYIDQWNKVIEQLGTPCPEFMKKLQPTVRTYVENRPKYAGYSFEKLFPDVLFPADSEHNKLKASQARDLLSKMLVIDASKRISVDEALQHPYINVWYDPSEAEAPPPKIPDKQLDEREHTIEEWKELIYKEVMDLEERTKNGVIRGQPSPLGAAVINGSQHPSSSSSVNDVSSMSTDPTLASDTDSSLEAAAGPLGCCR

What is called inhibition is the change of the read-out against control, counted positive when it falls. In the case of `O=C(NCCCNc1cc(-c2cn(-c3ccccc3)nc2-c2cccc(O)c2)ccn1)Nc1ccc(F)cc1`, the inhibition in test [1] was determined as 52%; in test [2], 53%.
